Results reported in US20250280861A1, “SWEETENER COMPOSITIONS” (Firmenich Incorporated, priority 2022, published 2025).

How the values were obtained:
[1] = biological target: T1, hT1R2/T1R3 taste receptor (Homo sapiens, UniProt Q7RTX0+Q8TE23); assay: agonist activity against the hT1R2/T1R3 taste receptor (sweet receptor based assay); assay type: cell-based; settings: agonist activity, hT1R2/T1R3; read-out: Sweet EC50
T1 sequence (Q8TE23 20-839): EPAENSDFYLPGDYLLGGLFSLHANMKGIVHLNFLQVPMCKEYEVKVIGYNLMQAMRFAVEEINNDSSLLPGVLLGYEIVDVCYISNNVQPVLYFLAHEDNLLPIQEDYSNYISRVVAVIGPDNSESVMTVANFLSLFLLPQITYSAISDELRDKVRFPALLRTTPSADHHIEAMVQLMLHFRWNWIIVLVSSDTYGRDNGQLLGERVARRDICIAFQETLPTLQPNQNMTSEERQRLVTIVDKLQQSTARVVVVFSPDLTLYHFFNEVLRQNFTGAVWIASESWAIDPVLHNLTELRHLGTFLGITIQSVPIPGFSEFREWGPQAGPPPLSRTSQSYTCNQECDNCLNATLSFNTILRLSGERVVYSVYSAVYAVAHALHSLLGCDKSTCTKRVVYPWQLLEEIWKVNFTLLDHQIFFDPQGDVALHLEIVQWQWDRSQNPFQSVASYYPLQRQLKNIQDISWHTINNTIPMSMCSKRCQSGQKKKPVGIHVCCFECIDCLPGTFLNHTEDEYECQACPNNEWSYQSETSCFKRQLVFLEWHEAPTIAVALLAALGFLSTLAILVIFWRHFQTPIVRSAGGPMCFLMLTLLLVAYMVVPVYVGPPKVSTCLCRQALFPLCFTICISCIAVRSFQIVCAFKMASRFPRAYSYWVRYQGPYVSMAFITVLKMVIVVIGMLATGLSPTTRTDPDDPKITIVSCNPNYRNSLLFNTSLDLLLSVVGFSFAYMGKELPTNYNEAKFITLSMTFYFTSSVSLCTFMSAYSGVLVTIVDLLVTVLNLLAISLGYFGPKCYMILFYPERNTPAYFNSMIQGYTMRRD
T1 sequence (Q7RTX0 21-852): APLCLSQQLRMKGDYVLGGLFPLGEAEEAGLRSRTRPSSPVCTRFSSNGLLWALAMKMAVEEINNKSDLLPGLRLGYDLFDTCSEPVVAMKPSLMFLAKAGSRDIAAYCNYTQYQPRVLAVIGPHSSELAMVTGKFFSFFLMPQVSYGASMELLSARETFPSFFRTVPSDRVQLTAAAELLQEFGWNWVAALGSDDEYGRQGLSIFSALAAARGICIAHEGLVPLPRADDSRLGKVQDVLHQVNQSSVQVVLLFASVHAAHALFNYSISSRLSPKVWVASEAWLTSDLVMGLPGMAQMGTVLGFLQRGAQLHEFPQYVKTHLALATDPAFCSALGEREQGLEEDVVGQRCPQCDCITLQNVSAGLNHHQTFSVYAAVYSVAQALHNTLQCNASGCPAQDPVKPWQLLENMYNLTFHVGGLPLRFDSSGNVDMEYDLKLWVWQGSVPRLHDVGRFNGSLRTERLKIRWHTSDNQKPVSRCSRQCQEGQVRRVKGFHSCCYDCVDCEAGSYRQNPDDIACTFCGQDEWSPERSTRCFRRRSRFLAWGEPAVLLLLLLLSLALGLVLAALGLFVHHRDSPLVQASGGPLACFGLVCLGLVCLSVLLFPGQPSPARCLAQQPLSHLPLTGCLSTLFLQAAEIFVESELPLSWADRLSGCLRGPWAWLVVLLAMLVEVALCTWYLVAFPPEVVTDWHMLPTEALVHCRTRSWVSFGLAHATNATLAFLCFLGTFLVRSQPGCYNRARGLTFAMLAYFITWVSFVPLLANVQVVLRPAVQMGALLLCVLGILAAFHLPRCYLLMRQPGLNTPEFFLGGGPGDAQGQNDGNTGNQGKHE
Description: Compounds described in this application show moderate to potent agonist effect on the sweet receptor based assay. Potencies (EC50 values, e.g. see Tables 1-3) for agonist activity were measured against the hT1R2/T1R3 taste receptor. FIG. 1 exemplifies the data generated during the screening to determine EC50 values.

panelists = assay: sweet enhancement taste tests (paired comparison, panelists choose the sweeter sample); assay type: in vivo, human; settings: for HFCS and sucrose sweet enhancement effect: taste tests, pH 2.8, concentration far below its sweetness threshold
Description: Test samples containing either a sweetener (sucrose or high-fructose corn syrup (HFCS)) alone or in combination with a test compound were presented in pairs to a group of panelists who were asked to determine which of the samples was sweeter. Subjects refrained from eating or drinking (except water) for at least 1 hour prior to the test. Subjects rinsed with water several times to clean the mouth. The samples within a paired comparison test were presented in a randomized, counterbalanced order. Panelists had up to a 1 minute delay between taste tests to clear the mouth of any tastes. Binomial probability tables were used to determine the probability of the correct number of responses occurring for each test at alpha-0.05.

[2] = Study 1: 10 ppm Compound 78 vs 1.5% Sucrose, pH 2.8
[3] = Study 2: 7 ppm Compound 78 + 6% sucrose vs 8% Sucrose

EC50 [1] [nM]	SMILES	Results (which of the samples was sweeter) (panelists; [2])	Results (which of the samples was sweeter) (panelists; [3])	Results (which of the samples was sweeter) (panelists; Study 3: 9 ppm Compound 78 + 6% HFCS vs 8% HFCS)	HFCS and sucrose sweet enhancement effect (panelists)	HFCS and sucrose sweet enhancement effect (panelists; listed as compound 78)	sweetness compared with 1.5% sucrose (panelists; test #1, 10 ppm, pH 2.8)	sweetness compared with 8% sucrose (panelists; test #2, 10 ppm of compound 78+6% sucrose)
1300	COCc1cccc(C2CCN(C(COC)C(=O)NCC(C)C)CC2)c1F (stereo not shown) [Compound 78, 2-(4-(2-fluoro-3-(methoxymethyl)phenyl)piperidin-1-yl)-N-isobutyl-3-methoxypropanamide]	9	21	22	remarkable HFCS and Sucrose sweet enhancement effect	significant enhancement	significantly less sweet	no significant difference in sweetness
	OC[C@H]1O[C@@](CO)(O[C@H]2O[C@H](CO)[C@@H](O)[C@H](O)[C@H]2O)[C@@H](O)[C@@H]1O [Sucrose, sucrose, reference compound]	42	24					
